From patent US20260297679A1, “ASSAYS FOR MONITORING INHIBITION OF RNA HELICASE DHX9” (ACCENT THERAPEUTICS, INC., priority 2023, published 2026)

Assays:
[1] = tested on: breast, ovarian, and lung cell lines; assay: circBRIP1 levels in breast, ovarian, and lung cell lines; assay type: cell-based
Method: Cells were plated at pre-determined cell densities in 384-well cell culture plates and incubated overnight in 37° C. at 5% CO2. […] Using TaqMan Multiplex Mastermix and thermal cycle conditions for the Quant Studio Thermocycler, qPCR was carried out as described above to quantify the level of circBRIP1.
(§1) Data analysis was performed by using the QuantStudio Thermocycler software to determine threshold Ct values. ΔCt for circBRIP1 is calculated by normalizing the target gene Ct to the GAPDH housekeeping gene Ct for each sample.
The inhibition activity (% Vehicle) is calculated by the following formulas, whereas: […]
An EC50 was then calculated using a 4-parameter logistic nonlinear regression model in Scigilian Analyze or GraphPad Prism, floating both the top and bottom parameters. […]

[2] = tested on: human PBMC; assay: circular and linear BRIP1 mRNA in fresh human PBMC (whole blood treated) by qPCR; assay type: cell-based; details: 24 hours, varying concentrations, FIGS. 9A-9D
Method: This study was conducted to evaluate the circular format of BRIP1 mRNA in fresh human PBMC cells by qPCR.
Human whole blood was obtained from Research Blood Components. Blood of each donor was aliquoted into vacutainer tubes containing Acid Citrate Dextrose (ACD).
Test compounds were prepared in DMSO stock solution and serially diluted. Compound (0.1% final DMSO concentration) was added to vacutainer tubes containing human whole blood. Tubes were placed in tube rotator and incubated at 37 C for 24 hours.
PBMCs were isolated from human whole blood after compound treatment by density gradient centrifugation using Ficoll-Paque Plus. RNA was extracted from PBMCs using RNeasy Plus Kits according to the manufacturer's (Qiagen) protocol. cDNA was reverse transcribed using RT^2 First Strand Kit according to the manufacturer's (Qiagen) protocol. […]
as §1, with “circBRIP1 or linBRIP1 was” for “circBRIP1 is”, “sample. The inhibition activity was calculated by the following formula, whereas: […]” for “sample.”

Cc1cccnc1-c1csc(C(=O)Nc2cc(Cl)cc(NS(C)(=O)=O)c2)c1 [Compound 1, N-(3-chloro-5-methanesulfonamidophenyl)-4-(3-methylpyridin-2-yl)thiophene-2-carboxamide]
circBRIP1 levels [1]: upregulated in breast, ovarian, and lung cell lines
human circBRIP1 in PBMCs of donor blood [2]: induced the presence of human circBRIP1 in a dose-responsive manner
linear BRIP1 in PBMCs of donor blood [2]: not significantly changed
